In PMC8580996, “2-Oxoglutarate derivatives can selectively enhance or inhibit the activity of human oxygenases” (Nature Communications, 2021):
“Also recorded” adds a separate entry of the source.

Columns and labels:
[1] = biological target: T1, FIH (Homo sapiens, UniProt Q9NWT6); experiment: SPE-MS FIH turnover (cosubstrate) assay in the absence of 2OG; assay type: biochemical; conditions: 330 μM 2OG or 2OG derivative, no 2OG, t = 15 min
Experimental: The ability of 35 synthetic C3/C4-substituted 2OG derivatives, which were prepared via a reported procedure (Supplementary Fig. 1 and Supplementary Methods)[21], to sustain catalysis by purified recombinant FIH in the absence of 2OG was examined using an assay directly monitoring substrate depletion and product formation (i.e., a +16 Da mass shift) by solid-phase extraction (SPE) coupled to mass spectrometry (SPE-MS)[44],[45]. […] (i.e. CA1–20)[47], were used as FIH substrates to test for potential substrate-dependent differences in terms of cosubstrate analog selectivity.
Assay samples were aspirated under vacuum for 0.6 s and loaded onto a C4 SPE cartridge. After loading, the C4 SPE cartridge was washed with 0.1%v/v aqueous formic acid to remove non-volatile buffer salts (5.5 s, 1.5 mL/min). […] The mass spectrometer was operated using the MassHunter Workstation B.08.00 software (Agilent), the mass spectrometer parameters were: capillary voltage (4000 V), nozzle voltage (1000 V), fragmentor voltage (365 V), gas temperature (280 °C), gas flow (13 L/min), sheath gas temperature (350 °C), sheath gas flow (12 L/min). […] Data were exported into Microsoft Excel and used to calculate the % conversion of the hydroxylation reaction using the equation: % conversion = 100 × (integral product peptide)/(integral substrate peptide+integral product peptide). […] Z′-factors were calculated according to the cited literature using Microsoft Excel (Supplementary Fig. 26)[83].

[2] = biological target: T2, AspH (Homo sapiens, UniProt Q12797); experiment: Competition assay in a single reaction vessel, AspH-catalyzed hydroxylation (SPE-MS); assay type: biochemical
T2 construct: the tetratricopeptide repeat domain (His6-AspH315-758), was produced and purified as previously reported; made in house
T2 sequence (Q12797 315-758): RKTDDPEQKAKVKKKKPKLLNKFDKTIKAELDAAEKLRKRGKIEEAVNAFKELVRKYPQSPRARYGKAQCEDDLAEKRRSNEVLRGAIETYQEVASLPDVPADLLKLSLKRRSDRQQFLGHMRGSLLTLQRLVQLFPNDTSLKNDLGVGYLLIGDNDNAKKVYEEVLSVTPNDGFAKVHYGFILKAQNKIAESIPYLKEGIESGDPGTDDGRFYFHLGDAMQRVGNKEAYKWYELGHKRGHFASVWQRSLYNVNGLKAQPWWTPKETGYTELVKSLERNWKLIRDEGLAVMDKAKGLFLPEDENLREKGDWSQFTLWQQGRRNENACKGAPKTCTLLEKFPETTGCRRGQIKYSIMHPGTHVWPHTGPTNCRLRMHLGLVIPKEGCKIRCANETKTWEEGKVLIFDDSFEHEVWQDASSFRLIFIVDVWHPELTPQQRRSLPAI
Experimental: (§1) Mean of three independent runs (n = 3; mean ± SD). […] Cosubstrates: a 20 μM 2OG; b 20 μM 2OG; c 20 μM 1; d 20 μM 12; e 20 μM 12 and 100 μM 2OG; f 100 μM 14. Source data are provided as a Source Data file.
(§2) Mean of three independent runs (n = 3; mean ± SD). […] Source data are provided as a Source Data file.
(§3) Peptide turnover was monitored by SPE-MS using the same instrument configuration (with the exception that the peptides were eluted from the SPE cartridge with 0.1%v/v aqueous formic acid in 80/20 v/v acetonitrile/water) as described above.
(§4) FIH and AspH-catalyzed peptide hydroxylations were analyzed simultaneously using SPE-MS as described in the
(§5) Methods section; competition experiments were performed in the same reaction vessel using equimolar 2OG
(§6) oxygenase and substrate concentrations. […]
(§7) Source data are provided as a Source Data file.
(§8) FIH and AspH-catalyzed peptide hydroxylations were analyzed simultaneously using SPE-
(§9) MS as described in the Methods section; competition experiments were performed in the same reaction vessel
(§10) using equimolar 2OG oxygenase and substrate concentrations. […]
(§11) 2OG, 100 μM 14. Source data are provided as a Source Data file.

[3] = biological target: T2, AspH; parameters: method as in PMID 34163896; conditions: hFX-CP101–119 substrate, 330 μM 2OG or 2OG derivative, t = 15 min; cited from earlier work
[4] = biological target: T1, FIH; experiment: SPE-MS FIH inhibition assay; assay type: biochemical; conditions: for FIH IC50, independent replicate: source data of Table 3, single independent replicates; for IC50 FIH: 5.0 μM HIF-1α788-822, 10 μM 2OG, mean of two runs; on IC50 FIH: 0.15 µM FIH
Experimental: FIH inhibition assays were performed as described, using cosubstrate/cofactor stock solutions (L-ascorbic acid, LAA: 50 mM in MQ-grade water; 2-oxoglutarate, 2OG: 10 mM in MQ-grade water; ammonium iron(II) sulfate hexahydrate, FAS, (NH4)2Fe(SO4)2·6H2O: 400 mM in 20 mM HCl diluted to 1 mM in MQ-grade water), which were freshly prepared from commercially-sourced solids (Sigma Aldrich).
Dimethyl sulfoxide (DMSO) solutions of the 2OG derivatives were dry dispensed across 384-well polypropylene assay plates (Greiner) in an approximately threefold and 11-point dilution series (100 μM top concentration; the final DMSO assay concentration was kept constant at 0.5%v/v) using an ECHO 550 acoustic dispenser (Labcyte). […] Each reaction was performed in technical duplicates in adjacent wells of the assay plates; additionally, assays were performed in two independent duplicates on different days using different inhibitor solutions.
The Enzyme Mixture (25 μL/well), containing 0.3 μM His6-FIH in buffer (50 mM Tris, 50 mM NaCl, pH 7.5), was dispensed across the inhibitor-containing 384-well assay plates with a multidrop dispenser (ThermoFischer Scientific) at 20 °C under an ambient atmosphere. The plates were subsequently centrifuged (1000 rpm, 15 s) and incubated for 15 min at 20 °C. The Substrate Mixture (25 μL/well), containing 10.0 μM HIF-1α788–822[37] substrate, 200 μM LAA, 20.0 μM 2OG, and 20.0 μM FAS in buffer (50 mM Tris, 50 mM NaCl, pH 7.5), was added using the multidrop dispenser. The plates were centrifuged (1000 rpm, 15 s) and after incubating for 15 min, the enzyme reaction was stopped by the addition of 10%v/v aqueous formic acid (5 μL/well). The plates were then centrifuged (1000 rpm, 30 s) and analyzed by MS.
MS-analyses were performed using a RapidFire RF 365 high-throughput sampling robot (Agilent) attached to an iFunnel Agilent 6550 accurate-mass quadrupole time-of-flight mass spectrometer operated in the positive ionization mode. Assay samples were aspirated under vacuum for 0.6 s and loaded onto a C4 SPE cartridge. After loading, the C4 SPE cartridge was washed with 0.1%v/v aqueous formic acid to remove non-volatile buffer salts (5.5 s, 1.5 mL/min). […] The mass spectrometer was operated using the MassHunter Workstation B.08.00 software (Agilent), the mass spectrometer parameters were: capillary voltage (4000 V), nozzle voltage (1000 V), fragmentor voltage (365 V), gas temperature (280 °C), gas flow (13 L/min), sheath gas temperature (350 °C), sheath gas flow (12 L/min). The m/z + 2 (for CA1–20) or +3 (for HIF-1α788–822) charge states of the peptide (substrate) and the hydroxylated peptide (product) were used to extract ion chromatogram data, peak areas were integrated using RapidFire Integrator 4.3.0 (Agilent). Data were exported into Microsoft Excel and used to calculate the % conversion of the hydroxylation reaction using the equation: % conversion = 100 × (integral product peptide)/(integral substrate peptide+integral product peptide). […] Z′-factors were calculated according to the cited literature using Microsoft Excel (Supplementary Fig. 26)[83].
SPE-MS FIH inhibition assays were performed as described in the Methods section.
Tris, 50 mM NaCl, pH 7.5, 20 °C). […]

[5] = biological target: T1, FIH; experiment: Competition assay in a single reaction vessel, FIH-catalyzed hydroxylation (SPE-MS); assay type: biochemical
Experimental: as §1, §2, §3, §4, §5, §6, §7, §8, §9, §10, §11

[6] = biological target: T2, AspH; conditions: 0.05 μM AspH, 1.0 μM hFX-CP101-119, 3.0 μM 2OG, ref 21 (supplementary ref 1); cited from earlier work
[7] = Fig 4d, 0.5 mM 13 and 0.5 mM 2OG, after 4 min

T1 sequence (Q9NWT6 whole entry): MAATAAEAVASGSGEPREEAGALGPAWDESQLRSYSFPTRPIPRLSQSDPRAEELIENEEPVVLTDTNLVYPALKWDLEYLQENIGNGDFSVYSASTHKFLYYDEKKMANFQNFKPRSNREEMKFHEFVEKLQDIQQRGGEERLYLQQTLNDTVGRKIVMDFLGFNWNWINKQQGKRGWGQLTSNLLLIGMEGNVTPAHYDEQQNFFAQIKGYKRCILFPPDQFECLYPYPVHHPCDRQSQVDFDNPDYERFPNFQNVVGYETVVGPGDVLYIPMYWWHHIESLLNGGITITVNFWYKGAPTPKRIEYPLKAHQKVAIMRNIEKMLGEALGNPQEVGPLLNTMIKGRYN

FIH activity, %-substrate conversion ([1]; CA1–20 substrate)	FIH activity, %-substrate conversion ([1]; HIF-1α788–822 substrate)	AspH-catalyzed substrate hydroxylation ([2]; Fig 4f, fourfold excess of 13 over 0.5 mM 2OG, after 4 min) [%]	AspH conversion [2, 7]	FIH IC50, independent replicate [4]	effect on FIH activity ([5]; Fig 4, 13 from 0 to 2.0 mM, 0.5 mM 2OG)	FIH conversion [5, 7]	IC50 FIH [4]	AspH conversion ([2]; Supplementary Fig 8b, 100 μM 28, 0 μM 2OG, after 35 min)	FIH cosubstrate activity ([5]; Supplementary Fig 8b, 100 μM 28, 0 μM 2OG)	Compound	AspH activity, %-substrate conversion [3] [%]	IC50 [6] [nM]	IC50 AspH [6]
^c<1% ^d<1%	^c<1% ^d<1%	–	–	–	–	–	inactive	–	–	O=C(O)C(=O)c1ccc(C(=O)O)c(F)c1 [compound 30]	~8	–	inactive
^c<1% ^d<1%	^c<1% ^d<1%	–	–	–	–	–	inactive	–	–	O=C(O)C(=O)c1ccc(C(=O)O)cc1Br [compound 31]	~20	–	inactive
^c<1% ^d<1%	^c<1% ^d<1%	–	–	–	–	–	inactive	–	–	O=C(O)C(=O)c1ccc(C(=O)O)c(Br)c1 [compound 32]	~8	–	inactive
^c<1% ^d<1%	^c<1% ^d<1%	–	–	–	–	–	inactive	–	–	Cc1cc(C(=O)O)ccc1C(=O)C(=O)O [compound 33]	~5	–	inactive
^c<1% ^d<1%	^c<1% ^d<1%	–	–	–	–	–	inactive	–	–	O=C(O)C(=O)c1cscc1C(=O)O [compound 34]	<1	–	inactive

Second part, the compound before the results:

Compound	FIH activity, %-substrate conversion ([1]; CA1–20 substrate)	FIH activity, %-substrate conversion ([1]; HIF-1α788–822 substrate)	AspH-catalyzed substrate hydroxylation ([2]; Fig 4f, fourfold excess of 13 over 0.5 mM 2OG, after 4 min) [%]	AspH conversion [2, 7]	FIH IC50, independent replicate [4]	effect on FIH activity ([5]; Fig 4, 13 from 0 to 2.0 mM, 0.5 mM 2OG)	FIH conversion [5, 7]	IC50 FIH [4]	AspH conversion ([2]; Supplementary Fig 8b, 100 μM 28, 0 μM 2OG, after 35 min)	FIH cosubstrate activity ([5]; Supplementary Fig 8b, 100 μM 28, 0 μM 2OG)	AspH activity, %-substrate conversion [3] [%]	IC50 [6] [nM]	IC50 AspH [6]
CC(C)(CC(=O)C(=O)O)C(=O)O [compound 13, 4,4-dimethyl-2OG]	~10%	< 1%	< 20	~ 60%	not inhibiting	no effect on FIH activity	~ 80%	–	–	–	<1	~300	–
O=C(O)C(=O)c1cccc(C(=O)O)c1 [compound 27]	^c<1% ^d<1%	^c<1% ^d<1%	–	–	–	–	–	inactive	–	–	<1	–	inactive
O=C(O)C(=O)c1ccc(C(=O)O)cc1 [compound 28, 4-Carboxyphenylglyoxylic acid]	~10%	< 1%	–	–	not inhibiting	–	–	–	~ 40%	no cosubstrate activity	~80	–	inactive; also recorded: neither inhibits AspH nor FIH catalysis
O=C(O)C(=O)c1ccc(C(=O)O)cc1F [compound 29]	^c<1% ^d<1%	^c<1% ^d<1%	–	–	–	–	–	inactive	–	–	~45	–	inactive
